According to US7462362B2, “Antifungal nail coat and method of use” (NexMed Holdings, Inc., priority 2003, dated 2008):
Structures can show the parent of a compound that is named as a salt.

Experiments:
[1] = tested on: T. mentagrophytes, (ATCC 24953); experiment: Agar diffusion plate assay, zone of inhibition (Example 9); type: cell-based, Trichophyton mentagrophytes; details: undiluted composition
Text: For the agar diffusion assay, the standardized inoculum of conidia is applied to the surface of a Potato Dextrose Agar plate and allowed to dry. Wells are then cut into the agar and the test composition is put into the wells and allowed to diffuse and antifungal activity is evidenced by zones of growth inhibition (i.e., area remaining clear, lacking growth) on the surface of the plates measured in millimeters (mm) diameter.
The fungicidal activity of terbinafine hydrochloride against the dermatophytic fungi, T. mentagrophytes, (ATCC 24953), is illustrated in the modified NCCLS broth dilution assay described in Example 8, based on minimum inhibitory concentration (MIC) and minimum fungicidal concentration (MFC) as well as an agar diffusion plate assay measuring the zones of inhibition.
MIC assay was determined using the broth dilution procedure described in Example 8 performed in microtiter wells with RPMI 1604 as the diluent. Serial dilutions of each test composition were made in RPMI diluent, and then 100 μl of undiluted test composition and of each diluted composition was added to a respective microtiter well. Conidial suspension (100 μl) was then added to each well and the plates were incubated at an incubation temperature of about 35° C. for an incubation period of 4 days dermatophytes, and 48 hours for yeasts. […], undiluted test composition was added to wells cut into the agar and allowed to diffuse. The MIC endpoint was the lowest concentration that inhibited 80% of fungal growth as compared to the growth control. The MFC endpoint was the lowest concentration to produce 1-2 colonies. The zone of inhibition size was measured (diameter of area remaining clear, i.e., lacking growth).

[2] = tested on: T. mentagrophytes, (ATCC 24953); experiment: Modified NCCLS M38-A broth microdilution MIC assay; type: cell-based, Trichophyton mentagrophytes
Text: The broth microdilution method was a modification of a NCCLS M38-A standard method for the susceptibility testing of conidium-forming filamentous fungi of the National Committee for Clinical Laboratory Standards (NCCLS). The modified method was developed at the Center for Medical Mycology, University Hospitals of Cleveland, Cleveland, Ohio, based on the method described in Jessup, et al., “Antifungal Susceptibility Testing of Dermatophytes: Establishing a Medium for Inducing Conidial Growth and Evaluation of Susceptibility of Clinical Isolates,” Journal of Clinical Microbiology, 38, 341-344, published by the American Society for Microbiology (2000), the disclosures of which are incorporated herein by reference. Based on a multicenter study of the reproducibility of the modified method for testing dermatophytes, adoption of the modified method as an amendment to the NCCLS M38-A standard has been proposed. […]
Dermatophyte isolates are subcultured onto Potato Dextrose Agar (PDA) and incubated at a temperature of about 30° C. for a period of about 4 to about 5 days or until good conidiation is produced. […] The suspension is allowed to settle for about 5 to about 10 minutes and the conidia is counted using a hemocytometer. […]
MIC assay was determined using the broth dilution procedure described in Example 8 performed in microtiter wells with RPMI 1604 as the diluent. […]

[3] = tested on: T. mentagrophytes, (ATCC 24953); experiment: MFC assay by subculturing the microtiter wells from the MIC test; type: cell-based, Trichophyton mentagrophytes
Experimental: Dermatophyte isolates are subcultured onto Potato Dextrose Agar (PDA) and incubated at a temperature of about 30° C. for a period of about 4 to about 5 days or until good conidiation is produced. T rubrum isolates are subcultured onto cereal (oatmeal) agar instead of PDA in order to induce conidia production. A suspension of conidia in sterile saline is made by gently swabbing the colony surface with a sterile swab. The suspension is allowed to settle for about 5 to about 10 minutes and the conidia is counted using a hemocytometer. Working suspensions of conidia are prepared in 10 ml RPMI 1604 (Difco Laboratories) medium to a final concentration of 1 to 3×10^3 CFU/ml. Yeast controls are subcultured onto PDA and incubated at a temperature of about 35° C. for about 48 hours. Yeast inocula are prepared to a final concentration of 0.5 to 2.5×10^3 CFU/ml. For MIC assay, each drug concentration well and growth control well is inoculated with 100 microliters of cell suspension, and the final volume in each microtiter well is 200 microliters. The dermatophyte plates are incubated at a temperature of about 35° C. for 4 days (yeast controls for 48 hours). […]
MIC assay was determined using the broth dilution procedure described in Example 8 performed in microtiter wells with RPMI 1604 as the diluent. […] The zone of inhibition size was measured (diameter of area remaining clear, i.e., lacking growth).

[4] = Release/retention of terbinafine hydrochloride from treated human nail clippings in ethyl alcohol; type: in vitro ADME; details: FIG. 2
Experimental: The terbinafine-treated nail clippings were then separately recovered from each test solution and rinsed with 10 mL of ethyl alcohol to remove antifungal liquid from the surface cavity. The rinsed nail clippings from each test were then separately immersed in another 5 mL portion of anhydrous ethyl alcohol to assess the rate of terbinafine release from the nail structure, by determining the concentration of terbinafine hydrochloride released as a function of time using the HPLC technique described above.

[5] = In vitro diffusion of terbinafine across a nail membrane (human nail clippings); type: in vitro ADME; details: applied as a 10% solution in ethanol

SMILES: CCCCCCCCCCCCOC(=O)C(C)N(C)C.Cl (stereo not drawn) [9(E), dodecyl-2-(N,N-dimethylamino) isopropionate hydrochloride]
- Zone size (mm) [1]: Zero
- efficacy as judged from MIC assays ([2]; in words): at most some weak efficacy

SMILES: CN(C/C=C/C#CC(C)(C)C)Cc1cccc2ccccc12 [9(F), terbinafine hydrochloride]
- Zone size (mm) ([1]; hydrochloride): 80 mm

SMILES: CN(C/C=C/C#CC(C)(C)C)Cc1cccc2ccccc12 [9(G), terbinafine hydrochloride]
- Zone size (mm) ([1]; hydrochloride): 18 mm
- MIC ([2]; Trichophyton mentagrophytes, ATCC24953, 96 h, 80% growth inhibition, 35° C., 4 days): 0.03 µg/mL
- MFC ([3]; Trichophyton mentagrophytes, ATCC24953, lowest concentration to produce 1-2 colonies): 0.125 µg/mL
- fungicidal efficacy as judged from MFC assays ([3]; in words): substantially equivalent

SMILES: CN(C/C=C/C#CC(C)(C)C)Cc1cccc2ccccc12 [terbinafine hydrochloride]
- period for amount of terbinafine hydrochloride retained in the nail to reach equilibrium [4]: about 10 hours

SMILES: CN(C/C=C/C#CC(C)(C)C)Cc1cccc2ccccc12 [terbinafine, (E)-N-(6,6-dimethyl-2-hepten-4-ynyl)-N-methyl-1-naphthalene methanamine]
- period to reach a concentration above the minimum inhibition concentration (MIC) for fungi across nail membrane [5]: about one
